Reference: US9351955B2, “Compounds and pharmaceutical compositions thereof for the treatment of cystic fibrosis” (Galapagos NV, priority 2013, dated 2016)
Values joined by “and” are separate entries in the source; they are usually repeats but may differ in a detail not shown here. Identical values can stand only once.

Key:
CFTR-G178R = molecular target: T1, CFTR-G178R (Homo sapiens, UniProt P13569, G178R); assay: YFP-halide influx assay for the CFTR-G178R; type: cell-based; conditions: read-out: EC50 measured by YFP-halide influx assay for the CFTR-G178R
T1 construct: expressed in transfected cells
In short: (§1)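 HEK293 cells reverse-transfected with mutant CFTR and halide-sensitive YFP H148Q/I152L/F47L reporter, then expressed 24 h at 37 °C, 5% CO2. Fluorescence quenching recorded for 7 s after I^− injection; response expressed as 1−F/F0, with EC50 derived from response versus compound concentration.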

CFTR-G1349D = molecular target: T2, CFTR-G1349D (Homo sapiens, UniProt P13569, G1349D); assay: YFP-halide influx assay for the CFTR-G1349D; type: cell-based; conditions: CFTR-G1349D mutant; read-out: EC50 measured by YFP-halide influx assay for the CFTR-G1349D
T2 construct: expressed in transfected cells
In short: as §1

CFTR-S549N = molecular target: T3, CFTR-S549N (Homo sapiens, UniProt P13569, S549N); assay: YFP-halide influx assay for the CFTR-S549N; type: cell-based; conditions: CFTR-S549N mutant; read-out: EC50 measured by YFP-halide influx assay for the CFTR-S549N
T3 construct: expressed in transfected cells
In short: as §1

CFTR-R117H = molecular target: T4, CFTR-R117H (Homo sapiens, UniProt P13569, R117H); assay: YFP-halide influx assay for the CFTR-R117H; type: cell-based; conditions: CFTR-R117H mutant; read-out: EC50 measured by YFP-halide influx assay for the CFTR-R117H
T4 construct: expressed in transfected cells
In short: as §1

CFTR G551D = CFTR G551D (Homo sapiens, UniProt P13569, G551D); assay: TECC assay, FRT cells stably transfected with G551D CFTR; type: cell-based; conditions: high expression CFTR-G551D cells, several values in a cell = repeat determinations
Method: 7.2.3. FRT-CFTR G551D Protocol
For G551D recordings, Fish Rat Thyroid (FRT) cells stably transfected with G551D CFTR (a low CFTR-G551D expressing cell line and a high expressing CFTR-G551D cell line from Rosalind Franklin University of medicine and science, Chicago, Ill.) are plated on Transwell supports (Costar 6.5 mm Diameter, […]). The cells are grown for 8-10 d under liquid-liquid interface conditions prior to electrophysiological readings. For electrophysiological recording, the FRT-G551D cells are mounted in the TECC heating plate for electrophysiological measurement and kept at 37° C. The epithelia are bathed in hepes buffered culturing medium without FBS on both the basolateral and apical sides. Apical amiloride is used to inhibit the endogenous ENaC currents while forkolin is applied on both apical and basolateral side to stimulate CFTR. After forskolin triggering, compounds are added on both sides to test their potential for increasing CFTR gating. Measurements are done during a 10 minute timeframe with recordings every 2 min. The increase in ISC is used as a measure for the increased CFTR activity, EC50 values can be generated by measuring impact of different concentrations of compound on ISC on the cells, for this purpose each transwell is treated with a different compound concentration. Inh-172, an inhibitor specific for CFTR, is used to test the specificity of the tested compounds.
When subjected to this protocol, the following EC50 are measured.

CYP3A4 = molecular target: T5, CYP3A4 (Homo sapiens, UniProt P08684); assay: Time dependent inhibition (TDI) of CYP3A4 in human liver microsomes; type: in vitro ADME
T5 construct: tissue BD Gentest; host or cells: human liver microsomes
Method: 8.7.11. Time Dependent Inhibition (TDI) 8.7.11.1. Protocol
The mechanism-based inhibition assay for CYP3A4 is carried out to evaluate the presence of any TDI.
A 5 mM stock solution of test compound is prepared in methanol. This stock is serially diluted 1:3 in methanol and then added in duplicates to mixture containing 50 mM potassium phosphate buffer pH 7.4 and human liver microsomes (BD Gentest). Final reaction conditions are as follows: seven test compound concentrations (0.14-100 μM), prepared in duplicates and 2% methanol.
A summary of the specific conditions is shown below.
After finishing the pre-incubation, the reaction is finally started by adding the co-factor mix to the first replica and probe substrate to second replica (opposite from pre-incubation).
After incubation at 37° C., the reaction (aliquot of 50 μL) is terminated with 150 μL acetonitrile:methanol (2:1) solution with internal standard (warfarin). Samples are centrifuged and the supernatant fractions analyzed by LC-MS/MS.
The instrument responses (ratio of test compound and internal standard peak areas) are referenced to those for solvent controls (assumed as 100%) in order to determine the percentage reduction in probe metabolism. […]

Sequence of CFTR G551D (P13569 whole entry G551D): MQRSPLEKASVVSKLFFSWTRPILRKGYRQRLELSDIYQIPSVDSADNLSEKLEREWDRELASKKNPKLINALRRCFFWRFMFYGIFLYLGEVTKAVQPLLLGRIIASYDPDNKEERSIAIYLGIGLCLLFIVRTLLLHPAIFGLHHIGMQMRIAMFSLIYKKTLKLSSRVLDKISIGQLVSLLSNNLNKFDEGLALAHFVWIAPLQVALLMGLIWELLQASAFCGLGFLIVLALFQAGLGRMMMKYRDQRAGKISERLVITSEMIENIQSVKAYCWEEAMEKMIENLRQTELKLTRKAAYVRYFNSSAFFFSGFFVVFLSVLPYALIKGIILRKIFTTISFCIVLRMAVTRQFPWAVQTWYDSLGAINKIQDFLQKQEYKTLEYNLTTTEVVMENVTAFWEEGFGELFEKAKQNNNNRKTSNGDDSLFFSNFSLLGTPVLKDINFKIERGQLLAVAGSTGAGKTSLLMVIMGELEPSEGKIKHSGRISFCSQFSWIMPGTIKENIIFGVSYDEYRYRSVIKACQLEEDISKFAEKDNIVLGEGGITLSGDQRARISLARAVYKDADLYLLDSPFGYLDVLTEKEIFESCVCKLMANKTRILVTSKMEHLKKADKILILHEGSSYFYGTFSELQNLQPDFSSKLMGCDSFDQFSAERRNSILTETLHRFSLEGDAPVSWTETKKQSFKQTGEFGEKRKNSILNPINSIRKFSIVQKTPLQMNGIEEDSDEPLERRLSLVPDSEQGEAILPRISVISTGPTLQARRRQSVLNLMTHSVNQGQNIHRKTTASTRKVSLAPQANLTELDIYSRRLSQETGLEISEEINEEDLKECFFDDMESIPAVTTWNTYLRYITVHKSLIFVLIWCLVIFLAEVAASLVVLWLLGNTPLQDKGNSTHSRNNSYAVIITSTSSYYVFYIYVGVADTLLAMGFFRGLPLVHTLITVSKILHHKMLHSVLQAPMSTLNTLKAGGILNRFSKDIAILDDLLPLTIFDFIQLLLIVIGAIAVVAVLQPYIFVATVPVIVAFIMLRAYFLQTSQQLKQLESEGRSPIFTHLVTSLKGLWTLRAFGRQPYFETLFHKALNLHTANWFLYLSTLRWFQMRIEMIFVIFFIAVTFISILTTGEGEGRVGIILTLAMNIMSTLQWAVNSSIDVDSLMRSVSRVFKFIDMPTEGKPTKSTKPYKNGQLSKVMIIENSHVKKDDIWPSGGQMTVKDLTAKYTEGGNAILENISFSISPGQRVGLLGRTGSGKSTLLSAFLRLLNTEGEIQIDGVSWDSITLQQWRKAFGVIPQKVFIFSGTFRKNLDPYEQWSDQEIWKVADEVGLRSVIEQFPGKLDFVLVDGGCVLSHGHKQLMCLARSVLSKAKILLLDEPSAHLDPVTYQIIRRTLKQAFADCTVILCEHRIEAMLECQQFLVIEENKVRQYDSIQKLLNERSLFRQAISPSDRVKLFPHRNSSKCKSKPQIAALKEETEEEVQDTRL
T5 sequence (P08684 whole entry): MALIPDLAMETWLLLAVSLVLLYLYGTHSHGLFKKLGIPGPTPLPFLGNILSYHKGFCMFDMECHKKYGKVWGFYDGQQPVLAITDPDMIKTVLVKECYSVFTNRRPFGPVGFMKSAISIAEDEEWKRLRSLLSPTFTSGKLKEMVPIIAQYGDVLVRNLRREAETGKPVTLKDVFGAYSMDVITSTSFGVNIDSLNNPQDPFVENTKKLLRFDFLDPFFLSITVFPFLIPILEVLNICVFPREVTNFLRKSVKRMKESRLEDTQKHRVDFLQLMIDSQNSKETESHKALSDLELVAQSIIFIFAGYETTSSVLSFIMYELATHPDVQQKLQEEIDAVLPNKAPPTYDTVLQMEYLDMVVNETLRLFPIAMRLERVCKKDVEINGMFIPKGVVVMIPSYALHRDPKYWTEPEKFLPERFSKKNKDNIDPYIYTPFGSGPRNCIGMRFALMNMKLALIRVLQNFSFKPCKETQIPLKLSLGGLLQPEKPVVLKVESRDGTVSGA
T3 sequence (P13569 whole entry S549N): as the sequence (P13569 whole entry G551D) above, with S549N, D551G counted along it
T1 sequence (P13569 whole entry G178R): as the sequence (P13569 whole entry G551D) above, with G178R, D551G counted along it
T4 sequence (P13569 whole entry R117H): as the sequence (P13569 whole entry G551D) above, with R117H, D551G counted along it
T2 sequence (P13569 whole entry G1349D): as the sequence (P13569 whole entry G551D) above, with D551G, G1349D counted along it

EC50 (CFTR-G178R) [nM] | EC50 (CFTR-G1349D) [nM] | EC50 (CFTR-S549N) [nM] | EC50 (CFTR-R117H) [nM] | EC50 (CFTR G551D) | IC50 (CYP3A4; both without and with preincubation, Midazolam or testosterone as probe substrate, human liver microsomes) [nM] | Compound | time-dependent inhibition of CYP3A4 (CYP3A4; IC50 without vs with preincubation)
56.9 | 63.3 | 211 | 166 | 66.2 nM and 90.2 nM and 85 nM and 61.5 nM and 57.8 nM and 87.4 nM | > 100000 | CC1(C)Cc2c(sc(NC(=O)c3ccn[nH]3)c2C(N)=O)C(C)(C)O1 [Compound 2, N-(3-carbamoyl-5,5,7,7-tetramethyl-5,7-dihydro-4H-thieno[2,3-c]pyran-2-yl)-1H-pyrazole-5-carboxamide] | no evidence for time-dependent inhibition of CYP3A4
699 | 578 | 902 | 433 | 361 nM and 527 nM and 695 nM and 400 nM and 511 nM | – | CC1(C)Cc2c(sc(NC(=O)C3(CO)CC3)c2C(N)=O)C(C)(C)O1 [Compound 9, 2-(1-(hydroxymethyl)cyclopropanecarboxamido)-5,5,7,7-tetramethyl-5,7-dihydro-4H-thieno[2,3-c]pyran-3-carboxamide] | –
